The values that follow come from PubChem BioAssay AID2305 (GlaxoSmithKline (GSK), 2010).

Several values for one entry are separate records, joined by “and”; a condition that tells them apart may be missing. Equal entries are not always repeated.

In this experiment the test system is P. falciparum 3D7 growth, pLDH absorbance. Description: P. falciparum 3D7 growth inhibition, dose response, strain 3D7 (AID 2305).

In general, IC50 refers to the concentration needed to halve the response being measured. Molecule `O=C(O)C[C@H](NC(=O)c1cc(-c2ccc3c(c2)OCO3)no1)C(=O)O` (tested in a mixture with another compound) came in with an IC50 of 190 nM. That is a sub-micromolar value. Under `Cc1cc(NC(=O)c2cccs2)ccc1OC1CCN(Cc2ccccc2)C1` (centres undefined) stands 890 nM; under `Cc1cc(N[C@@H](Cc2ccccc2)C(=O)NCCCOC(C)C)nc(NCCc2ccc(F)cc2)n1`, 930 nM; under `CC[C@H]1CN2CC[C@H]1C[C@H]2[C@H](O)c1ccnc2ccc(C#N)cc12`, 150 nM. Under `COc1ccccc1N1CCN(C(C(=O)NCc2cccc(F)c2)c2ccc(C)cc2)CC1` (centres undefined) stands 890 nM; under `Cc1cccc2[nH]c(-c3ccc(-c4ccc(CNCc5cnn(-c6ccccc6)n5)cc4)s3)nc12`, 720 nM; under `Cc1ccc(CN2CCN(Cc3cccc(NC(=O)c4ccc5ccccc5c4)c3)CC2)cc1C`, 1220 nM.

Regarding `c1cc(Nc2nc(-c3ccc(-c4csc(Nc5ccncc5)n4)cc3)cs2)ccn1`, the IC50 turned out to be 120 nM. Then `CCN(CC)CCCOC(=O)c1ccc2c(c1)-c1ccc(C(=O)OCCCN(CC)CC)c3cccc-2c13`, with 930 nM. Under `O=C(/C=C/c1ccc(Cl)c(Cl)c1)NCCCCCN1CC[C@H](NC(=O)Nc2ccc(Oc3ccccc3)cc2)C1` stands 700 nM; under `CCc1cccc2c(C#N)cn(CC(=O)NCCc3ccccc3)c12`, 890 nM. Under `CCN1CCC(N(Cc2ccc(-c3ccc(C(F)(F)F)s3)cc2)C(=O)Cn2c(CCc3cccc(F)c3F)nc(=O)c3ccccc32)CC1` stands 930 nM; under `O=c1cc(NC[C@@H]2CCC[C@@H]2NCc2ccc(Cl)c(Cl)c2)[nH]c2ccccc12`, 600 nM. Molecule `N#Cc1ccc(NC(=O)c2ccc(C(=O)NCCCCN3CCC(c4ccc5c(c4OCCOC4CCCCO4)CCCC5)CC3)cc2)cc1` (centres undefined) displayed an IC50 of 580 nM. Then `COC(=O)c1ccc(C(=O)NCCCCN2CCC(c3ccc4c(c3OC)CCCC4)CC2)cc1-c1ccc(C(F)(F)F)cc1`, with 1150 nM; and `Cc1ccc2c(c1)c(C1CCN(C(=O)c3ccc([N+](=O)[O-])o3)CC1)cn2C`, with 750 nM; and `Cc1ccc(NC(=O)NC2CCN(CCC(NC(=O)Cc3ccccc3)c3ccc(Cl)c(Cl)c3)CC2)cc1` (centres undefined), with 620 nM. `CC(=O)c1ccc(NC(=O)Nc2ccc(N(C)c3ccnc(Nc4cccc(CS(C)(=O)=O)c4)n3)cc2)cc1` yielded a concentration for half-maximal inhibition (IC50) of 120 nM. Under `O=C(N[C@@H](Cc1ccccc1)C(=O)NCCN1CCOCC1)c1ccc(O)c(-c2ccc(Cl)c(Cl)c2)c1` stands 920 nM; under `Cc1cc(OCCCN=C(N)c2ccc3ccccc3c2)c(C(C)C)cc1Cl`, 970 nM. In the case of `Nc1c2c(nc3ccc(C(=O)Nc4ccc(Br)cc4)cc13)CCCC2`, the IC50 stood at 150 nM. Then `NS(=O)(=O)CCc1cccc(Nc2nccc(-c3c(-c4cccc(NC(=O)c5c(F)cccc5F)c4)nn4ccccc34)n2)c1`, with 60 nM. In the case of `NC1=NC2(CCCCC2)N(Cc2ccc(Cl)c(Cl)c2)C(N)=N1`, the IC50 is 620 nM. Then `O=C(Nc1ccccc1C(F)(F)F)NC1CCC(CN2CCC(c3c[nH]c4ccccc34)CC2)CC1` (centres undefined), with 950 nM and 780 nM; and `CC(C)Cc1nc2nc(N)nc(N)c2cc1C(C)C`, with 230 nM; and `COc1ccc(CNC(=O)NC2CCN(c3ccnc(Nc4ccc(OC)cc4)n3)C2)cc1` (centres undefined), with 1000 nM. On to `CN(CCCNc1ccc(C(=O)Nc2ccc(C(F)(F)F)cc2)cc1[N+](=O)[O-])Cc1ccccc1`, for which the IC50 was found to be 230 nM. Compared with the last molecule, the IC50 is about 4.3-fold lower.

`NCC1CCCN1Cc1ccc(-c2ccc(-c3nc4ccccc4[nH]3)s2)cc1` (centres undefined) gave an IC50 of 930 nM. As to `O=C(Nc1cccc(OCc2ccccc2)c1)c1ccc(CN2CCC(Cc3ccccc3)CC2)cc1`, the IC50 stood at 850 nM.

As for `CCOc1ccc(-c2nc(NC(=O)CS(=O)(=O)c3ccccc3)sc2C)cc1`, the IC50 amounted to 510 nM. Under `Cc1cc(Nc2ccc(C)c(C)c2)n2nc(C)nc2n1` stands 600 nM; under `CN(C(=O)c1cc2c(-c3cncnc3)cccc2[nH]1)c1ccccc1`, 630 nM. Then `COc1cccc(-c2[nH]c3ccccc3c2CN2CCC(c3c(C)cccc3C)CC2)c1`, with 1020 nM.

The molecule `COc1ccc(C(=O)Cn2nc(-c3ccc(Cl)cc3)ccc2=O)c(OC)c1` showed an IC50 of 500 nM. Under `Cc1cccc2[nH]c(-c3ccc(-c4ccc(NC(=O)C(=O)c5cccn5C)cc4)cc3)nc12` stands 820 nM; under `COc1ccc2ncc(F)c(CCN3[C@@H]4CC[C@H]3CC(NCc3cc5c(cn3)OCS5)C4)c2n1` (some centres undefined), 920 nM. Under `Cc1cccc2[nH]c(-c3cccc(-c4ccc(NC(=O)C(C)C(=O)NC(C)C)cc4)c3)nc12` (centres undefined) stands 1000 nM.

For `O=C(Nc1ccccc1)N(Cc1cccc(-c2ccc(CNC3CCCC3)cc2)c1)C1CCN(Cc2ccccc2)CC1`, the concentration for half-maximal inhibition (IC50) was 390 nM. Compared with the last molecule, the IC50 is about 2.6-fold lower. Then `Cc1cccc2[nH]c(-c3ccc(-c4cccc(NC(=O)CCc5cnc[nH]5)c4)cc3)nc12`, with 410 nM; and `COc1ccc(CC(Cc2ccc(OC)cc2)NCC(O)c2cccc(Cl)c2)cc1` (centres undefined), with 160 nM; and `O=C1CCCN1CCCNCc1cccc(-c2cccc(-c3nc4ccc(C(F)(F)F)cc4[nH]3)c2)c1`, with 300 nM.

In turn, `Fc1cccc(Nc2nc(NCc3ccc4ccsc4c3)nc(Nc3cccc(F)c3)n2)c1` gave an IC50 of 1080 nM. Then `CCCCN1C(=O)C(c2ccccc2)(c2ccccc2)N=C1N`, with 1030 nM; and `COc1ccc(N2CCN(CCCCNC(=O)c3ccc(NC(=O)c4cc(Cl)cc(Cl)c4)cc3)CC2)c(OC)c1`, with 300 nM; and `O=C(/C=C/c1ccc(Cl)c(Cl)c1)NCCCCCN1CCC(NC(=O)Nc2ccc(F)c(Cl)c2)CC1`, with 620 nM. Then `CNCCNCc1cccc(-c2cccc(-c3nc4c(C)cccc4[nH]3)c2)c1`, with 770 nM. Under `CN(Cc1ccc(C#N)cc1)C1CCN(c2cc(NC(=O)c3cccc(F)c3)ccn2)CC1` stands 1750 nM; under `O=C(Nc1ccc2c(c1)CCC2)N[C@H]1CCN(Cc2ccc(OCCCN3CCCCC3)cc2)C1`, 860 nM. `O=C(Nc1ccccc1C(F)(F)F)Nc1nn(Cc2c(F)cccc2Cl)cc1Br` had a 50% inhibitory concentration (IC50) of 340 nM. Against the preceding molecule, the IC50 is about 2.5-fold lower.

On to `CCCCCN1CCC(NS(=O)(=O)c2cccc(C(=O)Nc3ccc(C(F)(F)F)cc3)c2)C1` (centres undefined), for which the IC50 is 800 nM. Consider `Cc1ccc(Nc2nc(C)cc(NC3CC3)n2)cc1`, for which the IC50 amounted to 1220 nM. Then `Cc1nc(C)c(CC(=O)Nc2ccc(-c3ccc(-c4nc5ccc(C(F)(F)F)cc5[nH]4)s3)cc2)s1`, with 1030 nM; and `Cn1cncc1C(=O)Nc1cccc(-c2ccc(-c3nc4ccc(F)cc4[nH]3)s2)c1`, with 870 nM; and `COc1ccc(NC(=O)/C=C/c2ccccc2Cl)cc1OCCN1CCN(c2ccncc2)CC1`, with 730 nM. Then `Cc1cc(C)n2nc(C(=O)Nc3cc(C(F)(F)F)ccc3N3CCOCC3)nc2n1`, with 120 nM; and `Cn1cncc1C(=O)Nc1cccc(-c2cccc(-c3nc4ccccc4[nH]3)c2)c1`, with 640 nM.

`O=C(NC(c1ccccc1)c1ccccc1)C(c1cc2ccccc2o1)N1CCN(C(c2ccccc2)c2ccccc2)CC1` (centres undefined): the IC50 is 680 nM. Then `CCNc1cc(C(=O)N[C@@H](Cc2ccccc2)[C@H](O)CNC2CCC(C(C)(C)C)CC2)cc(N2CCCC2=O)c1` (some centres undefined), with 440 nM; and `N/C(=N\c1cccc(Cc2ccc([N+](=O)[O-])cc2)n1)Nc1ccccc1`, with 950 nM. Turning to `Nc1nc(N)c2c(ccc3c2ccn3Cc2ccccn2)n1`, the IC50 came to 10 nM. Turning to `CC[C@H](C)CNC(=O)c1cncc(-c2cccc(CN3CCC(N4CCCC4)CC3)c2)c1`, the half-maximal inhibitory concentration (IC50) amounted to 1170 nM.

The molecule `O=C(/C=C/c1ccc(Cl)c(Cl)c1)N1CCC(CN2CCC(c3c[nH]c4ccc(NS(=O)(=O)c5cccs5)cc34)CC2)CC1` had an IC50 of 220 nM. Then `C=CCNS(=O)(=O)c1ccc(NC(=O)C(C)Oc2ccc([N+](=O)[O-])cc2)cc1` (centres undefined), with 1220 nM. Then `Cc1c(-c2cccc(C(C)(C)NC3CCN(Cc4ccccc4)CC3)c2)cnc(N)c1C`, with 580 nM; and `CCCCCCCc1cc(O)c2c3c(c(=O)oc2c1)CN(C)CC3`, with 140 nM. In the case of `Cc1nnsc1C(=O)Nc1cccc(-c2cccc(-c3nc4c(C)cccc4[nH]3)c2)c1`, the IC50 was 270 nM. This IC50 is about 1.9-fold higher than that of the molecule before. Under `CCNc1cc(C(=O)N[C@@H](Cc2ccccc2)[C@H](O)CNC(C)Cc2cccc(Cl)c2)cc(N2CCCCS2(=O)=O)c1` (some centres undefined) stands 500 nM; under `COc1cccc(CN2CCCC(CCC(=O)Nc3ccc(C(F)(F)F)cc3)C2)c1O` (centres undefined), 750 nM.

Turning to `COc1cc(Nc2nc(N)n(C(=O)c3ccc4c(c3)OCO4)n2)cc(OC)c1OC`, the IC50 is 1130 nM. Then `COc1cc(C2CCN(CCCCNC(=O)c3ccc(NC(=O)c4cc(C(F)(F)F)cc(C(F)(F)F)c4)cc3)CC2)ccc1OC(C)C`, with 150 nM.

In turn, `Oc1cccc(-c2nc(-c3ccccc3)c(-c3ccc(Oc4ccc(-c5[nH]c(-c6cccc(O)c6)nc5-c5ccccc5)cc4)cc3)[nH]2)c1` yielded an IC50 of 860 nM. Molecule `CS(=O)(=O)c1cccc(-c2cnc3[nH]cc(-c4ccc(C(=O)O)cc4)c3c2)c1` registered an IC50 of 340 nM.

`CC(=O)c1cc(N2CCOCC2)ccc1N` returned an IC50 of 910 nM. Then `OCCCCCCNc1ccnc2[nH]c3ccc(I)cc3c12`, with 1070 nM.

`CCCNC[C@@H](O)[C@H](Cc1ccccc1)NC(=O)c1cc2c3c(c1)c(CC)cn3CCS(=O)(=O)N2C` registered an IC50 of 100 nM.

As for `CC(C)C[C@H](Nc1ccnc(NCC2CCCCC2)n1)C(=O)NCCc1ccccc1`, the IC50 came to 750 nM.

`Clc1ccc(CNCCCCCCCNCc2ccc(Cl)c(Cl)c2)cc1Cl` came in with an IC50 of 370 nM.

`COC(=O)C(=C(C)C)N1C(=O)[C@@H](NC(=O)OCc2ccccc2)[C@H]1SS[C@@H]1[C@H](NC(=O)OCc2ccccc2)C(=O)N1C(C(=O)OC)=C(C)C` had an IC50 of 430 nM. Under `COc1ccc(-c2c(C(F)(F)F)nn(C)c2NC(=O)Nc2ccc(F)cc2F)cc1` stands 800 nM. Then `CC(C)c1ccc(NC(=O)c2ccc(C(=O)NC3CCN(CC4CCCCC4)CC3)cc2)cc1`, with 650 nM. In the case of `Cc1c(CCc2cccc(F)c2F)[nH]c2ccccc2c1=O`, the IC50 worked out at 820 nM. Under `COc1ccccc1N1CCN(CCCCNC(=O)c2ccc(NC(=O)c3cc4ccccc4o3)cc2)CC1` stands 980 nM; under `Fc1cc(Cl)ccc1Nc1ccnc2cc(I)ccc12`, 1130 nM; under `COc1ccc(NC(=O)c2ccc(Br)c(C)c2)cc1N1CCN(Cc2ccccc2)CC1`, 920 nM.
